Results on 4 molecules are retold here after ChEMBL document CHEMBL1201862, “PubChem BioAssay data set” (2004).

The target of assay [1] is T1, Alkaline phosphatase, tissue-nonspecific isozyme (Homo sapiens, UniProt P05186).
T1 sequence (P05186 whole entry): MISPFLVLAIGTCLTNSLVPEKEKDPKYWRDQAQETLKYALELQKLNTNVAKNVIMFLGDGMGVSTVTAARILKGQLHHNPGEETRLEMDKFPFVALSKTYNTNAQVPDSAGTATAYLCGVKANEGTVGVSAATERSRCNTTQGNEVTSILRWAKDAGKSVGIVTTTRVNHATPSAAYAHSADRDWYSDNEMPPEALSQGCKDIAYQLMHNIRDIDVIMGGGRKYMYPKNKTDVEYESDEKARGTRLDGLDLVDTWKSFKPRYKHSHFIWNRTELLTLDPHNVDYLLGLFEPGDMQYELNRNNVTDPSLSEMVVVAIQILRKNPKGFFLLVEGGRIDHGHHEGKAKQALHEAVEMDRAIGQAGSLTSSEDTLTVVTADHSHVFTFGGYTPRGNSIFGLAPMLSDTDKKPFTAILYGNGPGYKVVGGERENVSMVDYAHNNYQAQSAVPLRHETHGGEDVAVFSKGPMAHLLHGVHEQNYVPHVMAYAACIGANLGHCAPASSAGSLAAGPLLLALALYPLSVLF

Assay [2] deals with T2, DNA repair protein RAD52 homolog (Homo sapiens, UniProt P43351).
T2 sequence (P43351 whole entry): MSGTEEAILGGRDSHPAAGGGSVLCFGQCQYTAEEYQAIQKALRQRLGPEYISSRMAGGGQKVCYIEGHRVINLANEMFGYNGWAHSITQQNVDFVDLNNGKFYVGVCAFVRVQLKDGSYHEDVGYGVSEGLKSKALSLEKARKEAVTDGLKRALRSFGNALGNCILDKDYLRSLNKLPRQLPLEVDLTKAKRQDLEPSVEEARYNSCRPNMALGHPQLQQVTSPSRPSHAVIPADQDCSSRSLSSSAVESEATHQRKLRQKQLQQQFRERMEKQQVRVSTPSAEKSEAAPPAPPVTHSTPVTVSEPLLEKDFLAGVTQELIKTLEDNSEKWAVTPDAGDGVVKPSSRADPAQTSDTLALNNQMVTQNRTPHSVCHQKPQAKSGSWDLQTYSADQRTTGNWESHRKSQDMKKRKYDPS
In kind it is functional, biochemical.

Assay [3] in a line: Counterscreen for IDE inhibitors: Luminescence-based cell-based high throughput dose response assay to identify compounds that are cytotoxic to HEK cells. [Related pubchem assays: 434962 (Primary screen (IDE inhibitors in singlicate)), 449730 (Counterscreen (Cytotoxicity in triplicate)), 435028 (Confirmation (IDE inhibitors in triplicate)) …. In kind it is functional. The conditions noted are these: HEK293.

In a further assay the target is T3, Insulin-degrading enzyme (Homo sapiens, UniProt P14735).
T3 sequence (P14735 whole entry): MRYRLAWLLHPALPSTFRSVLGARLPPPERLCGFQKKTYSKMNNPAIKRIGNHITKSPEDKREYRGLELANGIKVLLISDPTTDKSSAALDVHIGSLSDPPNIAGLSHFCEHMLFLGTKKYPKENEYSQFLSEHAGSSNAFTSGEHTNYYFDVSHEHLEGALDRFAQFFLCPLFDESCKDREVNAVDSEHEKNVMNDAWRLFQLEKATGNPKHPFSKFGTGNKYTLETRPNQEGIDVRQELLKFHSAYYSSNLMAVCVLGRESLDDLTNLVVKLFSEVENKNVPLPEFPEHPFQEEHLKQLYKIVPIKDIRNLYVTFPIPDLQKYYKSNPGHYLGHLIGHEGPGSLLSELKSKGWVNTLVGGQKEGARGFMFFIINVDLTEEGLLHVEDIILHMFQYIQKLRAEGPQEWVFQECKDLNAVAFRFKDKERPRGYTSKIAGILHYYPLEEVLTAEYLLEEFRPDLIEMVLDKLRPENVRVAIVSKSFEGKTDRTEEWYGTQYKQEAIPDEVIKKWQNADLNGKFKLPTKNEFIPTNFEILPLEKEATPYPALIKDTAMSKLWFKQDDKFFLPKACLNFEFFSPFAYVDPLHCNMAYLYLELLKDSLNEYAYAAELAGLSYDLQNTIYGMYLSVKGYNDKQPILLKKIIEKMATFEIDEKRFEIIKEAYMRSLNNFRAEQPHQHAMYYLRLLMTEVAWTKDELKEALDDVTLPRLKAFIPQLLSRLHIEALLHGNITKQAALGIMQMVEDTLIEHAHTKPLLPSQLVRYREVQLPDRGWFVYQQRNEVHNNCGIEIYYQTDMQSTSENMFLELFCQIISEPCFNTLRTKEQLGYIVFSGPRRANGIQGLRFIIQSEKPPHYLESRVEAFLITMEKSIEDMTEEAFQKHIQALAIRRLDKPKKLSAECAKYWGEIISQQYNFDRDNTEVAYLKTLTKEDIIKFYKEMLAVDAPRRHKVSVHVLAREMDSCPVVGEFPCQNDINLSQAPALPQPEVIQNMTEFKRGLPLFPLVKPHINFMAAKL
Briefly: Dose Response: Fluorescence polarization-based cell-based high throughput dose response assay for inhibitors of insulin-degrading enzyme (IDE). [Related pubchem assays: 434962 (Primary screen (IDE inhibitors in singlicate)), 449730 (Counterscreen (Cytotoxicity in triplicate)), 435028 (Confirmation (IDE inhibitors in triplicate)), 434984 (Summary …. Format: functional.

A short description of assay [4]: NIH-3T3 fibroblast cytotoxicity, dose response, cytotoxicity control, cell-based, fluorescence, Alamar Blue, secondary assay (AID 2327).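 Also: NIH-3T3 mouse fibroblasts cultured with fluconazole at 8 µg/mL.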 In kind it is functional.
A short description of assay [5]: C. albicans growth with fluconazole, confirmation, fluorescence, retest (AID 2467). In kind it is functional, cell-based.
Assay [6] addresses Serine/threonine-protein phosphatase (Homo sapiens, UniProt Q9BPW0). As to the kind of experiment: Counterscreen for inhibitors of PP1: fluorescence-based biochemical high throughput dose response assay to identify inhibitors of Protein Phosphatase 5 (PP5). [Related pubchem assays: 2034 (Summary (PP5 inhibitors)), 1987 (PP5 inhibitors in singlate), 2235 (PP1 inhibitors in singlate)].

In assay [7] the target is Serine/threonine-protein phosphatase PP1-alpha catalytic subunit (Homo sapiens, UniProt P62136). As to the kind of experiment: PP1 phosphatase inhibitors, dose response, biochemical, fluorescence (AID 2403).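 Also: phosphatase turnover of OMFP into fluorescent 3-O-methylfluorescein.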
Serine/threonine-protein phosphatase PP1-alpha catalytic subunit, sequence (P62136 whole entry): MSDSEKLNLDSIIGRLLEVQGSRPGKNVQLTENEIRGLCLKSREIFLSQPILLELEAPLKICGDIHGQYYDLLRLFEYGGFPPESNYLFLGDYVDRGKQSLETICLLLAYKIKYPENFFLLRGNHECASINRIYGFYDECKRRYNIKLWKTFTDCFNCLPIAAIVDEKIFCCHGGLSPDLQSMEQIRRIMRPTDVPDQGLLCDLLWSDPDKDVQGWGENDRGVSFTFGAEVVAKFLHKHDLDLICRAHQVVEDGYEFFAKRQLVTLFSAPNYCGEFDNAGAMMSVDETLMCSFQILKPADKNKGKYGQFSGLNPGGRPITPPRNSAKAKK
The target of another assay is Cytochrome P450 2D6 (Homo sapiens, UniProt P10635). Briefly: qHTS Assay for Inhibitors and Substrates of Cytochrome P450 2D6. [Related pubchem assays: 410 ]. In kind it is ADME. The settings on record: read-out: Potency.
Cytochrome P450 2D6, sequence (P10635 whole entry): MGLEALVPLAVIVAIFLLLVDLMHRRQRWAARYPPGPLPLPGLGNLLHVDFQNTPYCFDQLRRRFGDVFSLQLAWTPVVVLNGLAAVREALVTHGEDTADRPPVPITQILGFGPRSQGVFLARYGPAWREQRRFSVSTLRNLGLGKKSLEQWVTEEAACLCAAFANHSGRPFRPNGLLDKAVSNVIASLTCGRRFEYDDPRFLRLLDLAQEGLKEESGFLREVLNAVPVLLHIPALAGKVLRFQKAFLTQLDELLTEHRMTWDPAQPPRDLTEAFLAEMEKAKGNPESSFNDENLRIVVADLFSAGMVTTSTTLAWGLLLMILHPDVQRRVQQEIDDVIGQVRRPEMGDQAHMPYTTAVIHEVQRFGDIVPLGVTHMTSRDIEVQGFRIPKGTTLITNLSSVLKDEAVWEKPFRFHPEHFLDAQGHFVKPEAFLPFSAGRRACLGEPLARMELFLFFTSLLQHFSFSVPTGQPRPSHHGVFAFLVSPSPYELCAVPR

SMILES strings stand for the structures. Active and inactive are the calls of the source. Where only a bound is given, the exact number is not on record here.

Serine/threonine-protein phosphatase, sequence (Q9BPW0 whole entry): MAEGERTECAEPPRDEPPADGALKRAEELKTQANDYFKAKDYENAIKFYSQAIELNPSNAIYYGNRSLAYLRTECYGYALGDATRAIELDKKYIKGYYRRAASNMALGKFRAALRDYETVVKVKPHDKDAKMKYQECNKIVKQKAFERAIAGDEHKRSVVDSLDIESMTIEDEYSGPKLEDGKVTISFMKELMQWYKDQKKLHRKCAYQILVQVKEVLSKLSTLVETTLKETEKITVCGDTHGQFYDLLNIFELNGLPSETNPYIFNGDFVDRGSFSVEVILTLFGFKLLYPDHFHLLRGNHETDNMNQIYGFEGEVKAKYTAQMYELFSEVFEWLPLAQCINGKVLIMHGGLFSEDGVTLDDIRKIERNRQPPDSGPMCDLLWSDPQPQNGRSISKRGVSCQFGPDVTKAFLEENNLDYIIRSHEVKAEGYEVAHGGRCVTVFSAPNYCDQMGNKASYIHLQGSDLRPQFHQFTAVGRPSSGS

Turning to `CN(C)CCCN(C(=O)c1ccco1)c1nc2ccc(Br)cc2s1`, in [1], the EC50 was > 100 µM (not active). In [2], the AC50 is 14.1 µM (active).

In the case of `CCCCCN(C(=O)CCC(=O)OCC(=O)c1ccc(CCC)cc1)c1c(N)n(CCCC)c(=O)[nH]c1=O`, the IC50 is reported as 39.1 µM (not active) in assay [3] and 10.6 µM (not active) against Insulin-degrading enzyme.

In the case of `COc1cnc(-c2ccccn2)nc1Sc1cccc(Cl)c1`, the EC50 in [4] is > 160 µM (inactive); in assay [5] it was > 38 µM (not active). Further, the IC50 is > 67 µM (not active) in assay [6] and 4.75 µM (active) in [7].

With `C=CCc1cccc(C2C(C)CCC3C(=O)N4C(Cc5c([nH]c6ccccc56)C4c4cc(OC)c(OC)c(OC)c4)C(=O)N32)c1` (centres undefined), at Cytochrome P450 2D6, the AC50 is 3.98 µM (inconclusive).
